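Dose response: 5 concentrations. Exposure: 48 h. Format: 96-well plates. Endpoint: linear interpolation; highest concentration if not reached. At the GI50, growth is halved. TGI: total growth inhibition.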

Experimental findings from PubChem BioAssay (NCI) are described below.

Some test systems named below: BT-549 breast; CCRF-CEM leukemia; COLO 205 colon; HCC-2998 colon; HCT-116 colon; K-562 leukemia; LOX IMVI melanoma; MCF7 breast; NCI/ADR-RES ovarian; U251 CNS.
Experiment in all cases: DTP human tumour cell line panel, 48 h

`CCCC[C@H](NC(=O)[C@H]1CCCN1C)C(=O)N(C)[C@H](C[C@@H](OC(C)=O)c1nc(C(=O)N[C@@H](Cc2ccccc2)C[C@H](C)C(=O)OCC)cs1)C(C)C`: the GI50 (as a rule, the concentration that inhibits growth by half) in the test on BT-549 breast was 0.0168 µM; in the test with CCRF-CEM leukemia, 0.0122 µM; in the test with COLO 205 colon, 0.0132 µM; in the test on HCC-2998 colon, 0.0113 µM; in the test with HCT-116 colon it was 0.0125 µM; in the test on K-562 leukemia, 0.00726 µM. The GI50 in the test with LOX IMVI melanoma is 0.0173 µM; with MCF7 breast, under 0.00333 µM; with NCI/ADR-RES ovarian it was 0.542 µM; in the test on U251 CNS it was 0.0144 µM. For the same compound, the TGI (commonly the concentration giving total growth inhibition) is 0.447 µM in the test on BT-549 breast; 6.41 µM in the test with CCRF-CEM leukemia; 0.0961 µM in the test with COLO 205 colon; 10.9 µM in the test on HCC-2998 colon; over 33.3 µM in the test on HCT-116 colon; over 33.3 µM with K-562 leukemia. The TGI in the test with LOX IMVI melanoma was 9.99 µM; with MCF7 breast, over 33.3 µM; in the test on NCI/ADR-RES ovarian it was over 33.3 µM; with U251 CNS, over 33.3 µM.
For the compound `Cc1c(C(=O)/C=C/c2csc3ccccc23)[n+](=O)c2ccccc2n1[O-]`, the GI50 with BT-549 breast is 1.61 µM; with CCRF-CEM leukemia it was 2.42 µM; in the test on HCC-2998 colon, 1.91 µM; in the test on HCT-116 colon, 1.37 µM; in the test on LOX IMVI melanoma it was 1.23 µM; with MCF7 breast it was 2.28 µM. Further, the results for the GI50 with NCI/ADR-RES ovarian and in the test on U251 CNS were 2.01 µM and 1.64 µM, respectively. Moreover, the total growth inhibition concentration (TGI) in the test with BT-549 breast amounted to 3.88 µM; in the test with CCRF-CEM leukemia, 7.56 µM; in the test with HCC-2998 colon, 3.38 µM; in the test on HCT-116 colon, 2.65 µM; in the test on LOX IMVI melanoma it was 2.47 µM; in the test on MCF7 breast it was 8.18 µM. Further, the TGI was found to be 5 µM with NCI/ADR-RES ovarian and 3.17 µM with U251 CNS.
For `CCCN=Cc1cc(Cc2ccc(O)c(C=NCCC)c2)ccc1O`, the TGI with BT-549 breast is over 100 µM; in the test with COLO 205 colon, 34.2 µM; in the test with HCC-2998 colon, 27.8 µM; in the test on HCT-116 colon, 7.19 µM; in the test with K-562 leukemia, 4.71 µM; in the test with LOX IMVI melanoma it was 13.4 µM. Also, the results for the TGI in the test on MCF7 breast, in the test with NCI/ADR-RES ovarian and in the test on U251 CNS were 6.87 µM, 59.6 µM and 9.22 µM, respectively.
As for `CC1(C)SC2C(NC(=O)C(N)c3ccccc3)C(=O)N2C1C(=O)O` (stereo unspecified), the TGI with BT-549 breast, with CCRF-CEM leukemia, in the test on COLO 205 colon, in the test on HCC-2998 colon, in the test on HCT-116 colon and with LOX IMVI melanoma was over 100 µM each time. For the same compound, the TGI in the test with MCF7 breast, in the test on NCI/ADR-RES ovarian and in the test with U251 CNS was over 100 µM throughout.
As to `CN(C)/C=C/c1nnc([N+](=O)[O-])s1`, the TGI with BT-549 breast was determined as 34.7 µM; with COLO 205 colon, 10.3 µM; with HCC-2998 colon it was 33.2 µM; in the test with HCT-116 colon, 26.2 µM; in the test with LOX IMVI melanoma, 17.4 µM; with MCF7 breast it was 8.01 µM. For the same compound, the values for the TGI in the test on NCI/ADR-RES ovarian and in the test with U251 CNS were 37.7 µM and 51.8 µM, respectively.
Regarding `Cc1occc1C(=S)Nc1ccc(Cl)c(COC(C)(C)C)c1`, the TGI turned out to be 33.6 µM in the test with BT-549 breast; 62.4 µM in the test on CCRF-CEM leukemia; 30.6 µM in the test with COLO 205 colon; 32.2 µM with HCC-2998 colon; 32.1 µM in the test on HCT-116 colon; 34 µM in the test with LOX IMVI melanoma. Besides, the total growth inhibition concentration (TGI) with MCF7 breast was determined as 31.6 µM; with NCI/ADR-RES ovarian, 33.4 µM; in the test with U251 CNS it was 28.9 µM.
As for `COc1ccc(-c2ccc(/C=N/n3c(COc4ccc(Cl)cc4Cl)n[nH]c3=S)o2)c([N+](=O)[O-])c1`, the GI50 is 21.9 µM in the test on BT-549 breast; 16.3 µM with CCRF-CEM leukemia; 32.9 µM with COLO 205 colon; 17.5 µM with HCT-116 colon; 19.3 µM with K-562 leukemia; 15.9 µM with MCF7 breast. For the same compound, the GI50 in the test with NCI/ADR-RES ovarian was 19.8 µM; with U251 CNS, 22 µM. In addition, the TGI is 50.2 µM in the test with BT-549 breast; 42 µM in the test on CCRF-CEM leukemia; over 100 µM with COLO 205 colon; 31.3 µM with HCT-116 colon; 47.4 µM in the test with K-562 leukemia; 41.7 µM in the test on MCF7 breast. For the same compound, the TGI with NCI/ADR-RES ovarian was 46.4 µM; with U251 CNS, over 100 µM.
Regarding `C=C1C(=O)O[C@H]2[C@H]1CC/C(COC(=O)NCc1ccccc1OC)=C\CC[C@@]1(C)O[C@@H]21`, the GI50 in the test with BT-549 breast is 1.25 µM; in the test on CCRF-CEM leukemia it was 0.482 µM; with COLO 205 colon it was 1.75 µM; in the test on HCC-2998 colon, 1.82 µM; with HCT-116 colon, 0.548 µM; in the test with K-562 leukemia, 0.821 µM. Moreover, the GI50 is 1.43 µM with LOX IMVI melanoma, 2.26 µM with NCI/ADR-RES ovarian and 2.2 µM in the test with U251 CNS. Also, the TGI turned out to be 2.55 µM in the test on BT-549 breast; 4.7 µM in the test with CCRF-CEM leukemia; 3.72 µM with COLO 205 colon; 3.52 µM in the test on HCC-2998 colon; 1.86 µM with HCT-116 colon; 6.07 µM with K-562 leukemia. The TGI turned out to be 2.96 µM with LOX IMVI melanoma, 6.12 µM in the test on NCI/ADR-RES ovarian and 6.85 µM in the test with U251 CNS.
Turning to `Nc1ccn(Cc2ccc(C34CC5CC(CC(C5)C3)C4)c(O)c2)c(=O)n1`, the GI50 with BT-549 breast was over 100 µM; with COLO 205 colon it was over 100 µM; in the test with HCC-2998 colon, 32.1 µM; with HCT-116 colon, over 100 µM; in the test with K-562 leukemia it was 35.3 µM; in the test with LOX IMVI melanoma, over 100 µM. In addition, the GI50 with MCF7 breast was 91.5 µM; with NCI/ADR-RES ovarian, over 100 µM; in the test on U251 CNS, 23.6 µM. Also, the TGI in the test on BT-549 breast, in the test on COLO 205 colon, in the test on HCC-2998 colon, with HCT-116 colon, in the test on K-562 leukemia and in the test on LOX IMVI melanoma was over 100 µM each time. The TGI in the test on MCF7 breast, in the test on NCI/ADR-RES ovarian and in the test with U251 CNS was over 100 µM in each case.
`Nc1c(C(=O)Nc2cccc([N+](=O)[O-])c2)sc2nc3c(cc12)C(O)CCC3` (stereo unspecified): the GI50 is 7.76 µM in the test on BT-549 breast; 3.51 µM in the test with COLO 205 colon; over 100 µM in the test with HCC-2998 colon; 4.09 µM in the test with HCT-116 colon; 0.852 µM in the test on K-562 leukemia; 7.61 µM with LOX IMVI melanoma. In addition, the GI50 in the test on MCF7 breast is 3.14 µM; in the test with NCI/ADR-RES ovarian it was 4.72 µM; in the test on U251 CNS it was 6.3 µM. The TGI was 57.3 µM in the test with BT-549 breast; over 100 µM in the test with COLO 205 colon; over 100 µM in the test with HCC-2998 colon; over 100 µM with HCT-116 colon; over 100 µM with K-562 leukemia; over 100 µM in the test on LOX IMVI melanoma. Besides, the concentration for total growth inhibition (TGI) with MCF7 breast is over 100 µM; in the test on NCI/ADR-RES ovarian, over 100 µM; in the test with U251 CNS it was over 72.4 µM.
